# Key:
# [1] = system: DLBCL cell lines; experiment: Apoptosis (Annexin V/7-AAD staining, subG1 peaks); type: cell-based, human; conditions: subG1 peaks and Annexin V/7-AAD staining, 72 hr treatment
# Experimental: Cellular apoptosis was analyzed with an APC AnnexinV/7ADD Apoptosis Detection kit (BD Pharmingen). AnnexinV/7AAD plots and cell cycle graphics were generated using FlowJo software V7.6.1 for Windows (Tree Star).
# [2] = system: RB1 phosphorylation (pS780 and pT821); conditions: DLBCL cell lines; 24 hr treatment
# Experimental: For SDS-PAGE, total cell lysates were obtained using NP-40 lysis buffer (Tris-HCl 50 mM pH7.4, NaCl 150 mM, NaF 5 mM, EDTA 5 mM, 1% NP-40) supplemented with 1 mM activated Na3VO4 and complete proteinase inhibitor cocktail (Roche). […] After washing, membranes were probed against the indicated antigens following the manufacturer's recommendation. […] For chemoluminescence detection, enhanced ECL (GE Healthcare, Piscataway, N.J.) was used. After stripping, membranes were re-probed for GAPDH (1:3000, Santa Cruz Biotechnology) as loading control.
# [3] = system: luciferized mCherry+ (Toledo, Ly4 or Ly1) DLBCL cells xenotransplanted in NSG mice; experiment: In vivo efficacy in DLBCL xenografts (bioluminescence, flow cytometry, immunohistochemistry); design: species or system mouse; conditions: multiple DLBCL xenograft models in NSG mice, 7.5 mg/kg daily IP vs vehicle
# [4] = system: DLBCL cell lines; experiment: Cell cycle analysis (Hoechst 33342, flow cytometry); type: cell-based, human; conditions: 72 hr treatment
# Experimental: Cells were re-suspended in 1 ml of growth medium supplemented with 10 μg/ml Hoechst 33342 (Molecular Probes, Invitrogen) as final concentration. After 60 min at 37° C. in the dark. Analysis was performed on a FACSCAriallu cytometer (BD Biosciences) using the UV laser 350 nm with 20 mW. The cell cycle was plotted as histogram after excluding doublets.
# Cell cycle analysis was performed at 72 h using Hoechst 33342 (Supplemental Methods) and a FACSCAriaIIu cytometer (BD Biosciences) with a UV laser at 350 nm with 20 mW.
# [5] = system: DLBCL cell lines; experiment: Proliferation of DLBCL cell lines after chemical CDK inhibition (alamarBlue assay); type: cell-based, human
# Experimental: The identities of the DLBCL cell lines used in this study were confirmed via STR profiling (PowerPlex®1.2 system [Promega]) and the online verification services of the cell banks JCRB and DSMZ (available on the World Wide Web at cellbank.nibio.go.jp/cellbank_e.html and dsmz.de/STRanalysis). All DLBCL cell lines were cultured at 37° C. in 5% C02. SU-DHL-6, SU-DHL-7, DB and Toledo were propagated in RPMI; OCI-Ly3, OCI-Ly18 and OCI-Ly19 were grown in IMDM. HEK293T cells for lentiviral production were cultured in DMEM. All media were supplemented with 10 mM HEPES buffer, 2 mM L-glutamine, 50 U/mL penicillin, 50 U/mL streptomycin and 10% heat-inactivated fetal calf serum (Invitrogen). To ensure that cells were in logarithmic growth phase, cells were diluted to 200,000 cells/ml 48 h prior to any experiment.
# The pan-CDK inhibitor, flavopiridol (Selleck Chemicals, Houston, USA), was suspended in DMSO (10 mM stock solution) and stored at −20° C. until use. Following treatment, proliferation of DLBCL cell lines was assessed with the alamarBlue assay (Invitrogen, Carlsbad, Calif.).
smiles,measurement,setting,value
CN1CC[C@H](c2c(O)cc(O)c3c(=O)cc(-c4ccccc4Cl)oc23)[C@H](O)C1 [flavopiridol],apoptosis,[1],increased apoptosis
same,phosphorylation of RB1 at CDK4/6 and CDK2-specific sites (pS780 and pT821),[2],decreased the phosphorylation of RB1
same,lymphoma infiltration of bone marrow and spleen,[3],significantly reduced
same,tumor growth,[3]; bioluminescence,significantly reduced tumor growth
same,"cell cycle (S phase, arrest)",[4],decreased S phase and induced cell cycle arrest
same,sensitivity of proliferation to lower doses,"[5]; DHL7, DLBCL cell line with single copy RB1 loss, lower doses",less sensitive
same,cellular proliferation,"[5]; DLBCL cell lines with decreased or absent p53 activity and CNAs of cell cycle components, nanomolar doses, 1-4 days",decreased the cellular proliferation
